Test system: Plasmodium falciparum
Assay: Antimalarial activity against chloroquine sensitive Plasmodium falciparum FCR-3
Format: functional
Details: FCR-3/Gambia

Row | SMILES | IC50 [nM]
1 | CC(C)n1c2c(c3ccccc31)C(=O)c1cnc3ccccc3c1C2=O | 6400
2 | CCn1c2c(c3ccccc31)C(=O)c1c[n+]([O-])c3ccccc3c1C2=O | 380
3 | CC(C)n1c2c(c3ccccc31)C(=O)c1c[n+]([O-])c3ccccc3c1C2=O | 320
4 | O=C1c2c[n+]([O-])c3ccccc3c2C(=O)c2c1c1ccccc1n2CCO | 250
5 | CCn1c2c(c3ccccc31)C(=O)c1cnc3ccccc3c1C2=O | 2200
6 | O=C1c2c[n+]([O-])c3ccccc3c2C(=O)c2[nH]c3ccccc3c21 [CALOTHRIXIN A] | 185
7 | O=C1c2[nH]c3ccccc3c2C(=O)c2cnc3ccccc3c21 [CALOTHRIXIN B] | 120

The remaining compounds from weak to strong by IC50, led by results:

Row | IC50 [nM] | SMILES
8 | 490 | Cn1c2c(c3ccccc31)C(=O)c1cnc3ccccc3c1C2=O
9 | 380 | Cn1c2c(c3ccccc31)C(=O)c1c[n+]([O-])c3ccccc3c1C2=O
10 | 330 | O=C1c2cnc3ccccc3c2C(=O)c2c1c1ccccc1n2CCO

— ChEMBL document CHEMBL2046338, “Synthesis and antimalarial activity of calothrixins A and B, and their N-alkyl derivatives” (Bioorg Med Chem Lett, 2012)
